Where only a bound is given, the exact number is not on record here.

The values below come from patent US10562912B2 (C&C Research Laboratories, priority 2013, dated 2020).

Assay type in all cases: cell-based
The target in one test is T1, STAT3 (Homo sapiens, UniProt P40763).
T1 construct: plasmid pSTAT3-TA-luc), which contains a stably operating STAT3 promoter; endogenous in cells
The experiment in a line: STAT3 reporter gene assay (luciferase), LNCaP stable cell line (pSTAT3-TA-luc), IL-6 stimulation. In a few lines:
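Cytotoxicity was run on a duplicate plate with CellTiter-Glo, while the other plate gave luciferase read-outs from lysed LNCaP pSTAT3-TA-luc reporter cells. Cells were treated with graded compound concentrations plus IL-6 (10 ng/mL final) for 24–48 h in 3% DCC-FBS medium. Unstimulated and stimulated wells served as negative and positive controls.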

Another test has as its system AGS. The experiment in a line: Cell growth inhibition assay, stomach cancer cell line AGS. As to conditions: Homo sapiens; AGS stomach cancer cell line, 3,000 cells/well. Here is the method: The inhibitory effects of the compounds of the present invention against the growth of cancer cells were evaluated as shown below. The cancer cell lines including stomach cancer cell line (AGS), breast cancer cell lines (MDA-MB-231, MDA-MB-468, and BT-549), prostate cancer cell lines (LNCaP and DU-145), colon cancer cell line (HCT116), ovarian cancer cell line (SW626), liver cancer cell line (Hep3B), kidney cancer cell line (ACHN), lung cancer cell line (NCI-H23) and blood cancer cell lines (HEL92.1.7 and U266) were cultured under the protocol provided by each supplier. A medium supplemented with 10 ng/mL of IL-6 was used for LNCaP, a prostate cancer cell line, when treated with a drug. Each type of cells to be used in experiments were sub-cultured in a 96-well plate by counting the exact number of cells using Tali™ Image-based Cytometer (Life Technologies). In a 96-well plate, AGS, HCT116, and DU-145 were employed with 3,000 cells/well; NCI-H23, SW626, Hep3B, ACHN, BT-549, MDA-MB-231, HEL92.1.7, and U266 were employed with 5,000 cells/well; and LNCaP and MDA-MB-468 were employed with 10,000 cells/well. The cells were treated with the compounds listed in Examples which were diluted in various concentrations. Upon completion of the compounds treatment, AGS, HCT116, SW626, DU145, NCI-H23, Hep3B, ACHN, BT-549, LNCaP, HEL92.1.7, and U266 cells were cultured at 37° C. under 5% CO2 for from 72 to 96 hours, and MDA-MB-231 and MDA-MB-468 cells were cultured at 37° C. in air for from 72 to 96 hours. Subsequently, the cells were observed under microscope and drug precipitation and particular findings were investigated and recorded. And then, the 96-well plate was placed at room temperature for 30 minutes, added with 20 μL/well of CellTiter-Glo solution (Cat No. G7573, Promega) and shaken for 10 minutes, followed by being subjected to the measurement using PHERAstar™ microplate reader (BMG LABTECH) according to the supplier's general luminometer protocol. Wells where only culture liquid added without cell plating were used as a negative control, whereas wells where culture liquid containing 0.1% DMSO instead of the compounds listed in Examples were used as a positive control.

For the next test, the system named is LNCaP. The experiment in a line: Cell growth inhibition assay, prostate cancer cell line LNCaP (medium with 10 ng/mL IL-6). As to conditions: Homo sapiens, medium supplemented with 10 ng/mL of IL-6, 10,000 cells/well.

T1 sequence (P40763 whole entry): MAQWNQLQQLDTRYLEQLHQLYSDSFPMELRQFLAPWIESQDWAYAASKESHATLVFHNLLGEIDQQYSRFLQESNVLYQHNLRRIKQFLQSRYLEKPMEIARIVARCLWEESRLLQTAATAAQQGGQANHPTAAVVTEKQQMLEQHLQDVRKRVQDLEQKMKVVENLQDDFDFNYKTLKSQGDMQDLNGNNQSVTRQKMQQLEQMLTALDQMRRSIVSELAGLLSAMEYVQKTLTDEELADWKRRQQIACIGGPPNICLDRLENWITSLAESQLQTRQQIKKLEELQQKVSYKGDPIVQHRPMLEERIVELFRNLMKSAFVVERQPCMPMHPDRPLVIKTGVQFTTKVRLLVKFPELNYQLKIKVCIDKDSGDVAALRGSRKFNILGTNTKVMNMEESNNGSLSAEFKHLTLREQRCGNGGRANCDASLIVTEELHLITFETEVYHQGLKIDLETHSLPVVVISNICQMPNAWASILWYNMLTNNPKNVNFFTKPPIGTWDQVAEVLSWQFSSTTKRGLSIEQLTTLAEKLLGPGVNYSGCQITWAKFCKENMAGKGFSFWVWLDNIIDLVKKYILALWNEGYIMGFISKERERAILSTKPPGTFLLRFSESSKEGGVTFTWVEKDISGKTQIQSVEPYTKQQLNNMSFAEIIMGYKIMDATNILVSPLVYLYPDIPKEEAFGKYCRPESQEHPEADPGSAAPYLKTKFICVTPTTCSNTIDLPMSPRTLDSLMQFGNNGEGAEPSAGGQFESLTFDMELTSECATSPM

A word on the IC50: it is the point on the concentration scale where inhibition reaches its midpoint. Lower therefore signals inhibition by little substance. Regarding `CS(=O)(=O)Nc1ccc2c(C(=O)Nc3cccc(-c4ccccc4C(F)(F)F)c3)c[nH]c2c1` [Example 266, 6-(methylsulfonamido)-N-(2′-(trifluoromethyl)-[1,1′-biphenyl]-3-yl)-1H-indole-3-carboxamide], the IC50 was 6.8 µM on STAT3, 8.5 µM with AGS and above 10 µM with LNCaP.
As for `CN(C)S(=O)(=O)Nc1ccc2cc(C(=O)Nc3cccc(-c4ccccc4C(F)(F)F)c3)[nH]c2c1` [Example 267, 6-((N,N-dimethylsulfamoyl)amino)-N-(2′-(trifluoromethyl)-[1,1′-biphenyl]-3-yl)-1H-indole-2-carboxamide], the figures for the IC50 against STAT3, in the test with AGS and in the test with LNCaP were 2 µM, 9.2 µM and 3.2 µM, respectively.
In the same order, the values of `O=C(Nc1cccc(-c2ccccc2C(F)(F)F)c1)c1cc2ccc(NS(=O)(=O)C(F)(F)F)cc2[nH]1` [Example 268, N-(2′-(trifluoromethyl)-[1,1′-biphenyl]-3-yl)-6-(trifluoromethylsulfonamido)-1H-indole-2-carboxamide] are above 10 µM, 27.1 µM and above 10 µM.
Regarding `Nc1ccc2cc(C(=O)Nc3cccc(-c4ccc(F)cc4F)c3)[nH]c2c1` [Example 271, 6-amino-N-(2′,4′-difluoro-[1,1′-biphenyl]-3-yl)-1H-indole-2-carboxamide], the IC50 against STAT3 amounted to 5.9 µM; with AGS, 26.1 µM; in the test with LNCaP, 8.6 µM.
Turning to `CS(=O)(=O)Nc1ccc2[nH]c(C(=O)Nc3cccc(-c4ccc(F)cc4F)c3)cc2c1` [Example 272, N-(2′,4′-difluoro-[1,1′-biphenyl]-3-yl)-5-(methylsulfonamido)-1H-indole-2-carboxamide], the IC50 is 0.5 µM against STAT3, 18.8 µM in the test with AGS and 2.6 µM with LNCaP.
For `O=C(Nc1cccc(-c2ccc(F)cc2F)c1)c1cc2ccc(NS(=O)(=O)CC(F)(F)F)cc2[nH]1` [Example 273, N-(2′,4′-difluoro-[1,1′-biphenyl]-3-yl)-6-(2,2,2-trifluoroethylsulfonamido)-1H-indole-2-carboxamide], the IC50 against STAT3 was determined as 2.2 µM; in the test with AGS it was 10 µM; in the test on LNCaP it was 4.1 µM.
For `NS(=O)(=O)Nc1ccc2cc(C(=O)Nc3cccc(-c4ccc(F)cc4F)c3)[nH]c2c1` [Example 274, N-(2′,4′-difluoro-[1,1′-biphenyl]-3-yl)-6-(sulfamoylamino)-1H-indole-2-carboxamide], the IC50 at STAT3 is above 10 µM; in the test with AGS, 17.9 µM; in the test with LNCaP, above 10 µM.
With `CN(C)S(=O)(=O)Nc1ccc2cc(C(=O)Nc3cccc(-c4ccc(F)cc4F)c3)[nH]c2c1` [Example 276, N-(2′,4′-difluoro-[1,1′-biphenyl]-3-yl)-6-((N,N-dimethylsulfamoyl)amino)-1H-indole-2-carboxamide], the results for the IC50 against STAT3, in the test with AGS and in the test on LNCaP were 3.1 µM, 11.9 µM and 1.3 µM, respectively.
Regarding `CS(=O)(=O)Nc1ccc2cc(C(=O)Nc3cccc(-c4ccc(F)cc4C(F)(F)F)c3)[nH]c2c1` [Example 277, N-(4′-fluoro-2′-(trifluoromethyl)-[1,1′-biphenyl]-3-yl)-6-(methylsulfonamido)-1H-indole-2-carboxamide], the IC50 came to 0.38 µM against STAT3, 2.1 µM in the test on AGS and 1.8 µM with LNCaP.
Take `O=C(Nc1cc(-c2ccc(F)cc2F)ccn1)c1cc2ccc(NS(=O)(=O)C3CC3)cc2[nH]1` [Example 278, 6-(cyclopropanesulfonamido)-N-(4-(2,4-difluorophenyl)pyridin-2-yl)-1H-indole-2-carboxamide]: the IC50 on STAT3 is 4.5 µM; in the test with AGS it was 20 µM; in the test with LNCaP, 5.9 µM.
With `CS(=O)(=O)Nc1ccc2cc(C(=O)Nc3cc(-c4ccc(F)cc4F)ccn3)[nH]c2c1` [Example 279, N-(4-(2,4-difluorophenyl)pyridin-2-yl)-6-(methylsulfonamido)-1H-indole-2-carboxamide], the IC50 was 6.2 µM against STAT3, 40.7 µM with AGS and above 10 µM in the test on LNCaP.
With `CN(C(=O)c1cc2ccc(NS(C)(=O)=O)cc2[nH]1)c1cccc(-c2ccc(F)cc2F)c1` [Example 280, N-(2′,4′-difluoro-[1,1′-biphenyl]-3-yl)-N-methyl-6-(methylsulfonamido)-1H-indole-2-carboxamide], the IC50 turned out to be 1.7 µM at STAT3, 2.7 µM in the test with AGS and 2.7 µM in the test with LNCaP.
On to `COc1ccc(C(F)(F)F)c(-c2cccc(NC(=O)c3cc4ccc(NS(C)(=O)=O)cc4[nH]3)c2)c1` [Example 281, N-(5′-methoxy-2′-(trifluoromethyl)-[1,1′-biphenyl]-3-yl)-6-(methylsulfonamido)-1H-indole-2-carboxamide], for which the IC50 on STAT3 is 7.1 µM; in the test on AGS, 16.6 µM; in the test with LNCaP it was above 10 µM.
Consider `COc1ccc(C(F)(F)F)c(-c2cccc(NC(=O)c3cc4ccc([N+](=O)[O-])cc4[nH]3)c2)c1` [Example 282, N-(5′-methoxy-2′-(trifluoromethyl)-[1,1′-biphenyl]-3-yl)-6-nitro-1H-indole-2-carboxamide], for which the values for the IC50 at STAT3, in the test on AGS and with LNCaP were above 10 µM, 23.8 µM and above 10 µM, respectively.
Consider `CS(=O)(=O)Nc1ccc2cc(C(=O)Nc3cccc(-c4ccc(S(N)(=O)=O)cc4C(F)(F)F)c3)[nH]c2c1` [Example 283, 6-(methylsulfonamido)-N-(4′-sulfamoyl-2′-(trifluoromethyl)-[1,1′-biphenyl]-3-yl)-1H-indole-2-carboxamide], for which the IC50 against STAT3 was 7.4 µM; in the test on AGS it was 18.2 µM; in the test with LNCaP, above 10 µM.
For `CS(=O)(=O)Nc1ccc2cc(C(=O)Nc3cccc(-c4ccc(C#N)cc4C(F)(F)F)c3)[nH]c2c1` [Example 284, N-(4′-cyano-2′-(trifluoromethyl)-[1,1′-biphenyl]-3-yl)-6-(methylsulfonamido)-1H-indole-2-carboxamide], the IC50 came out at 1.9 µM against STAT3, 11.3 µM in the test on AGS and 3.1 µM with LNCaP.
As for `CS(=O)(=O)Nc1ccc2cc(C(=O)Nc3cccc(-c4ccc([N+](=O)[O-])cc4C(F)(F)F)c3)[nH]c2c1` [Example 285, 6-(methylsulfonamido)-N-(4′-nitro-2′-(trifluoromethyl)-[1,1′-biphenyl]-3-yl)-1H-indole-2-carboxamide], the half-maximal inhibitory concentration (IC50) at STAT3 came out at 2.5 µM; in the test on AGS it was 13.6 µM; with LNCaP, 3.3 µM.
For `COC(=O)c1ccc(C(F)(F)F)c(-c2cccc(NC(=O)c3cc4ccc([N+](=O)[O-])cc4[nH]3)c2)c1` [Example 286, methyl 3′-(6-nitro-1H-indole-2-carboxamido)-6-(trifluoromethyl)-[1,1′-biphenyl]-3-carboxylate], in that order: above 10 µM, 10.2 µM and above 10 µM.
In the case of `COC(=O)c1ccc(C(F)(F)F)c(-c2cccc(NC(=O)c3cc4ccc(NS(C)(=O)=O)cc4[nH]3)c2)c1` [Example 287, methyl 3′-(6-(methylsulfonamido)-1H-indole-2-carboxamido)-6-(trifluoromethyl)-[1,1′-biphenyl]-3-carboxylate], the IC50 is above 10 µM against STAT3, 23.6 µM in the test with AGS and above 10 µM in the test with LNCaP.
For `COC(=O)c1cc(-c2cccc(NC(=O)c3cc4ccc([N+](=O)[O-])cc4[nH]3)c2)c(C(F)(F)F)cc1OC` [Example 288, methyl 4-methoxy-3′-(6-nitro-1H-indole-2-carboxamido)-6-(trifluoromethyl)-[1,1′-biphenyl]-3-carboxylate], the IC50 against STAT3 is above 10 µM; with AGS it was above 50 µM; in the test with LNCaP, above 10 µM.
On to `COC(=O)c1cc(-c2cccc(NC(=O)c3cc4ccc(NS(C)(=O)=O)cc4[nH]3)c2)c(C(F)(F)F)cc1OC` [Example 289, methyl 4-methoxy-3′-(6-(methylsulfonamido)-1H-indole-2-carboxamido)-6-(trifluoromethyl)-[1,1′-biphenyl]-3-carboxylate], for which the IC50 is above 10 µM against STAT3, 32 µM in the test with AGS and above 10 µM in the test on LNCaP.
